# According to US7935525B2, “Inhibition of ATF2 activity to treat cancer” (Mount Sinai School of Medicine, priority 2001, dated 2011):
# No end group written: not given here.
# What was measured:
# [1] = tested on: Fas; test: Cell surface expression of Fas by FACS; type: cell-based, human; conditions: peptide-expressing LU1205; control 122
# Protocol: (§1) Treatment and apoptosis studies of stably transfected melanoma cells. Cells were exposed to UVC at 75 J/m^2 as previously described (Ronai, Z., et al., Oncogene 1998; 16:523-531). SB203580 (1-10 μM) (Calbiochem®, San Diego, Calif.), NCS (50-100 ng/ml) and mitomycin C (MMC) (0.2-1 μM) were used to treat melanoma cells. Flow cytometric analysis was performed on a FACSCalibur™ flow cytometer (Becton Dickinson) using CellQuest™ software as described previously (Nicoletti et al., J. Immunol. Methods 1991; 139:271-279). Cells were pelleted and resuspended in 0.5 ml of hypotonic buffer with 0.1% Triton X-100 containing PI (40 μg/ml) and DNase-free RNase A (1 mg/ml). Cells were incubated at 37° C. for 30 min and analyzed on a FACSCalibur™ flow cytometer (Becton Dickinson). The percentage of cells to the left of the diploid G0/1 peak, characteristic of hypodiploid cells that have lost DNA, was defined as the percentage of apoptotic cells. Analysis was performed with light scatter gating. Surface expression of Fas was determined using anti-Fas-PE antibody (PharMingen® CA) and flow cytometric analysis. Cell surface expression is measured as mean fluorescence intensity (MFI).
# [2] = tested on: LU1205 cells; test: Apoptosis by FACS (hypodiploid fraction); type: cell-based, human; conditions: peptide-expressing LU1205
# Protocol: as §1
# [3] = tested on: SW1 cells; test: Thymidine incorporation (DNA synthesis); type: cell-based, mouse; conditions: peptide-expressing vs control cells
# [4] = tested on: AP1 complex; conditions: previous studies; cited from earlier work
# [5] = tested on: FEMX tumor cells; test: Growth of transplanted FEMX tumors in mice; type: in vivo
# Protocol: Tumor growth and metastasis evaluation in vivo. Cell lines established in culture to constitutively or inducibly express the peptide were injected into mice subcutaneously (S.C.). LU1205, FEMX and SW-1 cells that expressed control or peptide II were trypsinized, resuspended in PBS and injected SC (1×10^6) into 6-7 week old mice in the lower flank. When the tumor reached the size of about 50 mm^3, 5 μM of SB203580 was injected into four areas of the LU1205 tumors every 4 days during a 2-week period. For FEMX tumors UCN-01 (2.5 mg/kg) was fed by gavage twice a day, three times per week for a total of 2 weeks. Tumor growth was monitored every two days. SW-1 cells expressing peptide II under tet-inducible vector were injected SC (1×10^6). When tumors reached a size of about 50 mm^3, the mice received doxycycline in their drinking water ([…]) for a total of 2-4 weeks. At the end of the experiment, the tumors were excised and weighed. The lungs and other organs were subjected to histopathological examination to detect metastatic lesions.
# [6] = tested on: TRE-based promoter (c-Jun/AP1); test: TRE-Luc reporter in c-Jun wild-type fibroblasts; type: cell-based
# Protocol: [Worded in the source for another cell line; this cell line is reported under the same test.] Transient transfection and transcriptional analysis. Mouse melanoma tumors grown in culture were transfected with control vector or peptide II expressing luciferase or β-galactosidase constructs (Bhoumik et al., Clin. Cancer Res. 2001; 7(2):331-42). Transient transfection of different reporter constructs (0.5 cg) with expression vectors and pCMV-Cgal (0.25 Cg) into 5×10^5 melanoma cells was performed using Lipofectamine™ (Life Technologies-BRL). Transfection of the Jun2-luciferase construct permitted us to monitor activity of ATF2 and c-Jun. Jun2-Luc and TRE-Luc constructs were previously described (van Dam H., et al., EMBO J. 1993; 12:479-487; and van Dam H., et al., EMBO J. 1995; 14:1798-1811). Luciferase activity was determined using the Luciferase assay system (Promega®, Madison, Wis.) and normalized on the basis of β-galactosidase (β-Gal) levels in transfected cells. Proteins were prepared for β-Gal and Luciferase analysis at the selected time points after transfection.
substance,measurement,setting,value
"peptide II: N-terminal polypeptide fragment of ATF2, amino acid residues 50-100, expressed from pcDNA3 with HA-penetratin tag (EMTLKFGPARNDSVIVADQTPTPTRFLKNCEEVGLFNELASPFENEFKKAS; also: HA-penetratin tag, position not given here; UniProt P15336 50-100, looked up, fragment)","cell surface expression of Fas, mean fluorescence intensity",[1],186
same,increase in apoptosis comparable to neo expressing cells,[2]; Adriamycin + verapamil,10 fold
same,increase in degree of apoptosis over control neo cells given Adriamycin and verapamil,[2]; Adriamycin + verapamil,50%
same,apoptotic fraction of UV-treated cells,"[2]; UV-C 75 J/m2, 36 h, neo control 15%",38%
same,increase in the degree of cell death,"[2]; higher doses (10 μM) of SB203580, 36 h",greater than 6 fold
same,increase in cell death,"[2]; low doses of SB203580, 36 h",3 fold
same,increase in the sensitivity to UV-induced apoptosis,[2]; treatment with JAK inhibitor AG490,3 fold
same,reduction in DNA synthesis level,[3],50%
same,inhibition of transcriptional activity mediated from the AP1 complex,[4],3 fold
same,tumor growth,[5]; co-treatment: peptide-expressing FEMX + UCN-01,tumor regression
same,tumor cell growth,"[5]; single agent: UCN-01 by gavage, or peptide expressed in tumor cells",grew much more slowly
same,increase in the activities of TRE-Luc,[6],200 fold
